Assay results taken from patent EP4755880A1, “SUBSTITUTED NITROGEN-CONTAINING BICYCLIC COMPOUND AND USE THEREOF” (Sunshine Lake Pharma Co., Ltd., priority 2023, dated 2025).
pIC50: −log10 of the molar value.

Columns and labels:
DLD-1 BRCA2(-/-) cells = assay: Inhibition of proliferation of DLD-1 BRCA2(-/-) cells (CTG method); type: cell-based; conditions: Homo sapiens, DLD-1, 168 h; 7 days incubation, CellTiter-Glo
Procedure, shortened: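 DLD-1 BRCA2(-/-) cells, 1,000 per well, attached overnight, then exposed to compound at final 10000 to 0.152 nM (4-fold series) in triplicate for 7 days at 37 °C, 5% CO2. Viability by CellTiter-Glo luminescence; IC50 for proliferation inhibition from a fitted curve.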

MDA-MB-436 cells = assay: Inhibition of proliferation of MDA-MB-436 cells (CellTiter-Glo); type: cell-based; conditions: Homo sapiens, MDA-MB-436, 168 h, 7 days incubation
Procedure, shortened: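 MDA-MB-436 cells seeded at 500-1000 cells/well, allowed to attach overnight, then treated with 9 concentrations from 10000 to 0.152 nM final (4-fold steps) in triplicate for 7 days at 37°C, 5% CO2. Viability by CellTiter-Glo luminescence; IC50 from fitted curve.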

in vivo [1] = conditions: BALB/c, mouse
Procedure: (§1) The compounds of the present invention were administered to test animals in the form of 5% DMSO + 30% PEG400 + 65% physiological saline, 10% DMSO + 10% Kolliphor HS15 + 80% Saline, 10% DMSO + 89% (25% SBE-B-CD) + (2% HCl), 20% PEG400 + 80% sterile water for injection, or 10% DMA+ 10% HS15 + 30% PEG400 + 50% sterile aqueous solution for injection. Animals were fasted for 12 hours before administration but had free access to water. For the intravenous administration group, the dose was 1 mg/kg. Blood samples (approximately 0.15 mL) were collected intravenously at the following time points after administration: 0.083, 0.25, 0.5, 1.0, 2.0, 4.0, 6.0, 8.0 and 24 h (dogs) or 0.083, 0.25, 0.5, 1.0, 2.0, 5.0, 7.0 and 24 h (mice and rats) or 0.083, 0.25, 0.5, 1.0, 2.0, 6.0, 8.0 and 24 h (monkeys). EDTA-K2 was pre-added to the blood collection tube as an anticoagulant. The blood samples were centrifuged at 12,000 rpm for 2 minutes, and plasma was collected and stored at -20 °C or - 70 °C. For the gavage administration group, the dosage was 1 mg/kg (mice, dogs, and monkeys) or 5 mg/kg (rats). After administration, venous blood samples (approximately 0.15 mL) were collected at the following time points: 0.25, 0.5, 1.0, 2.0, 4.0, 6.0, 8.0, and 24 h (dogs) or 0.25, 0.5, 1.0, 2.0, 5.0, 7.0, and 24 h (mice and rats) or 0.25, 0.5, 1.0, 2.0, 6.0, 8.0, and 24 h (monkeys). EDTA-K2 was pre-added to the blood collection tube as an anticoagulant. The blood samples were centrifuged at 12,000 rpm for 2 minutes, and plasma was collected and stored at -20 °C or -70 °C.
(§2) The collected plasma samples were processed (frozen plasma was thawed at room temperature, vortexed for 15 s to mix, 10-20 µL of plasma was taken, 120-150 µL of acetonitrile solution containing internal standard was added, vortexed for 5 min to mix, centrifuged at 4,000 rpm for 5 min, 100 µL of supernatant was taken, and 120-150 Ml/water (v/v = 1/1) was added and mixed). The concentration of compounds in the plasma was then analyzed by LC-MS/MS.

in vivo [2] = conditions: SD, rat
Procedure: as §1, §2
Table D Pharmacokinetic parameters of compounds of the present invention in SD rats

`CC#Cc1cc(CN2CC=C(c3ccc(C(=O)NC)nc3F)CC2)cc2[nH]c(=O)c(C)nc12` [Example 12, 2-fluoro-N-methyl-1'-((2-methyl-3-oxo-8-(prop-1-yn-1-yl)-3,4-dihydroquinoxalin-6-yl)methyl)-1',2',3',6'-tetrahydro-[3,4'-bipyridine]-6-carboxamide] gave a pIC50 (DLD-1 BRCA2(-/-) cells) of 8.72, a pIC50 (MDA-MB-436 cells) of 9.22 and an AUC(0-t) (in vivo [1]; iv, 2 mg/kg) of 1430 ng·h/mL. The Cmax (in vivo [1]; iv, 2 mg/kg) was 1630 ng/mL, the half-life (in vivo [1]; iv, 2 mg/kg) was 1.4 h and the AUC(0-t) (in vivo [1]; po, 5 mg/kg) was 4200 ng·h/mL. For the same compound, the Cmax (in vivo [1]; po, 5 mg/kg) was 2110 ng/mL, the half-life (in vivo [1]; po, 5 mg/kg) was 1.9 h and the AUC(0-t) (in vivo [2]; iv, 1 mg/kg) was 1260 ng·h/mL. It also gave a Cmax (in vivo [2]; iv, 1 mg/kg) of 897 ng/mL, a half-life (in vivo [2]; iv, 1 mg/kg) of 2 h and an AUC(0-t) (in vivo [2]; po, 5 mg/kg) of 3770 ng·h/mL. For the same compound, the Cmax (in vivo [2]; po, 5 mg/kg) was 922 ng/mL and the half-life (in vivo [2]; po, 5 mg/kg) was 2.4 h.
